{
  "source": "paper PMC11614538",
  "about": "“The proline-rich antimicrobial peptide B7-005: low bacterial resistance, safe for human cells and effective in zebrafish embryo bacteraemia model” (Open Biology, 2024)",
  "key": {"E. coli ATCC 25922": {"system": "E. coli ATCC 25922", "assay": "MIC against E. coli ATCC 25922 in the presence of human serum", "format": "cell-based, Escherichia coli", "description": "Escherichia coli ATCC 25922 was purchased from the American Type Culture Collection (ATCC) (Manassas, Virginia, USA) and stored at −80°C as glycerol stock until use. Bacterial cultures were grown overnight in sterile Müller–Hinton broth (MHB) (Difco Inc.) at 37°C under agitation (140 r.p.m.). The next day, the cultures were diluted 1 : 30 in new MHB and incubated as described above for about 2 h (mean logarithmic phase) until they reached an optical density at 600 nm of about 0.3 and then diluted in fresh MHB to the desired concentrations.\nThe effects of human serum on the antimicrobial activity of B7-005 were assessed by performing a minimum inhibitory concentration (MIC) assay with some modifications. Non-heat-inactivated human serum (Merk Life Science S.r.l., USA) was diluted to 50%, 40%, 30%, 25%, and 20% (v/v) in MHB and the solutions were aliquoted into the wells of a round-bottomed 96-well microtitre plate (Sarstedt, Milan, Italy). Samples with no serum were used for comparison. B7-005 was diluted in MHB added with the proper amount of serum to a concentration of 128 μM, added to the first column of the plate and serially diluted twofold in MHB, added with the proper amount of serum, in the subsequent wells in a final volume of 50 μl. Then 50 μl of a mid-log suspension of 5 × 10^5 CFU ml^−1 E. coli ATCC 25922 cells prepared in MHB added with the proper amount of serum was added to each well of the plate, halving the final concentration of bacteria and peptide. The plate was incubated at 37°C for 18 h. The MIC value was calculated as the lowest concentration of the compound resulting in complete inhibition of visible bacterial growth. MIC values were determined by performing at least three independent experiments (n ≥ 3)."}, "[1]": {"settings": "ref [20]; cited from earlier work", "excerpt": "The bioavailability in human serum of a peptide intended for clinical systemic use is a critical parameter for the success of peptide-based drugs. […] However, irreversible sequestration of the peptide by serum proteins at higher serum concentrations could also impair its antimicrobial activity. To check if the peptide maintained its availability under conditions closer to the clinical o ..."}, "[2]": {"system": "osteosarcoma cell line MG-63", "settings": "cited from earlier work", "excerpt": "In this study, the response of cells to B7-005 varied according to the cell type. The tumoral MEC-1 cells were the most sensitive to the cytotoxic effects of the peptide, displaying even higher sensitivity to B7-005 than observed in a previous study. However, we note that in the previous study, the peptides were generated by SPOT synthesis and therefore were of lower-grade purification, which likely explains the differences observed with our study. […] These cells were the only non-immortalized or tumor ..."}},
  "note": "Where two headings read alike, the source gives them in different places. Residues, ends and D or L forms follow the SMILES beside them.",
  "data": [
    {"compound": "CC[C@H](C)[C@H](NC(=O)[C@H](CCCNC(=N)N)NC(=O)[C@@H](N)Cc1c[nH]c2ccccc12)C(=O)N[C@@H](CCCNC(=N)N)C(=O)N[C@@H](CCCNC(=N)N)C(=O)N[C@@H](CCCNC(=N)N)C(=O)N[C@@H](Cc1c[nH]c2ccccc12)C(=O)N1CCC[C@H]1C(=O)N[C@@H](CCCNC(=N)N)C(=O)N[C@@H](CC(C)C)C(=O)N1CCC[C@H]1C(=O)N[C@@H](CCCNC(=N)N)C(=O)N1CCC[C@H]1C(=O)N[C@@H](CCCNC(=N)N)C(=O)N[C@@H](Cc1c[nH]c2ccccc12)C(=O)N[C@@H](CCCNC(=N)N)C(=O)O", "note": "[B7-005] (H-WRIRRRWPRLPRPRWR-OH)", "values": [
      {"measurement": "MIC of B7-005", "setting": "E. coli ATCC 25922; 0% human serum in MH medium, visual, 18 h at 37°C, mode of n = 3", "value": 1, "unit": "µM"},
      {"measurement": "MIC of B7-005", "setting": "E. coli ATCC 25922; 20% (v/v) human serum in MH medium, 18 h at 37°C, mode of n = 3", "value": 2, "unit": "µM"},
      {"measurement": "MIC of B7-005", "setting": "E. coli ATCC 25922; 20–30% (v/v) human serum", "value": 2, "unit": "µM"},
      {"measurement": "MIC of B7-005", "setting": "E. coli ATCC 25922; 25% (v/v) human serum in MH medium, 18 h at 37°C, mode of n = 3", "value": 2, "unit": "µM"},
      {"measurement": "MIC of B7-005", "setting": "E. coli ATCC 25922; 30% (v/v) human serum in MH medium, 18 h at 37°C, mode of n = 3", "value": 2, "unit": "µM"},
      {"measurement": "MIC of B7-005", "setting": "E. coli ATCC 25922; 40% (v/v) human serum in MH medium, 18 h at 37°C, mode of n = 3", "value": 4, "unit": "µM"},
      {"measurement": "MIC of B7-005", "setting": "E. coli ATCC 25922; 50% (v/v) human serum in MH medium, 18 h at 37°C, mode of n = 3", "value": 8, "unit": "µM"},
      {"measurement": "proteolytic degradation by serum proteases", "setting": "[1]", "value": "excluded rapid proteolytic degradation"},
      {"measurement": "concentration up to which MG-63 cells remained unaffected", "setting": "[2]; equivalent of 128 µg ml^−1, ref [35]", "value": "≥ 54", "unit": "µM"},
      {"measurement": "concentration up to which MG-63 cells remained unaffected", "setting": "[2]; ref [35]", "value": "≥ 128", "unit": "µg/mL"}
    ]}
  ]
}
